Columns and labels:
[1] = test system: Jurkat human acute T cell leukemia cells; experiment: Jurkat IL-2 release assay; assay type: cell-based; settings: IL-2 release from Jurkat cells stimulated with anti-CD3 and anti-CD28, 48 hours, ELISA
Outline: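 Jurkat cells were pre-treated with compound curves 30 min at 37°C, then stimulated on plate-bound anti-CD3 (coated at 10 μg/mL) plus 1 μg/mL soluble anti-CD28 for 48 h. IL-2 in supernatant quantified by ELISA; EC50 from dose-response against vehicle-treated controls.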

Tec kinase = Tec kinase (Homo sapiens (Human), UniProt P42680); experiment: Tec kinase inhibition assay; assay type: biochemical; settings: micro-fluidic detection, 3 hours at 25° C.
Procedure: The in vitro kinase assays were performed at Nanosyn utilizing micro-fluidic detection technology. The test compounds were serially pre-diluted in DMSO and added, by the acoustic dispensing (Labcyte® 550), directly to 384well assay plates into 10 uL of a buffer with enzyme comprising: 100 mM HEPES, pH7.5, 5 mM MgCl2, 0.1% bovine serum albumin, 1 mM DTT, 0.01% Triton X-100 and the enzyme. Final DMSO concentration was maintained at 1% in all samples, including the controls. The reactions were initiated by addition of ATP (to the specified concentration) and the fluorescently labeled peptide substrate to a final concentration of 1 uM, and incubated for 3 hours at 25° C. Following incubation, the reactions were quenched by addition of 40 μL of termination buffer (100 mM HEPES, pH7.5, 0.01% Triton X-100, 50 mM EDTA). Terminated plates were analyzed using Caliper LabChip® 3000 microfluidic electrophoresis instrument (Caliper Life Sciences/Perkin Elmer). The enzymatic modification of the peptide substrate (phosphorylation) results in a change of net charge enabling electrophoretic separation of product from substrate. As substrate and product are separated by electrophoresis, two peaks of fluorescence are observed. Change in the relative fluorescence intensity of the substrate and product peaks was the parameter measured, reflecting enzyme activity. In the presence of inhibitor, the ratio between product and substrate is altered: signal of the product decreases, while the signal of the substrate increases. Activity in each test sample was determined as the product to sum ratio (PSR): […], where P is the peak height of the product and S is the peak height of the FAM-cAMP substrate. For each compound, enzyme activity was measured at 12 concentrations spaced by 3× dilution intervals. Negative control samples (0%-inhibition in the absence of inhibitor, DMSO only) and positive control samples (100%-inhibition, in the absence of enzyme or in the presence of control inhibitor) were assembled in replicates of four and were used to calculate %-inhibition values in the presence of compounds. Percent inhibition (Pinh) was determined using the following equation: Pinh=(PSR0%−PSRinh)/(PSR0%−PSR100%)*100, where PSRinh is the product sum ratio in the presence of inhibitor, PSR0% is the product sum ratio in the absence of inhibitor and PSR100% is the product sum ratio in 100%-inhibition control samples. To determine IC50 values, the inhibition curves (Pinh versus inhibitor concentration) were fitted by 4 parameter sigmoid dose-response model using XLfit software (IDBS).

Tec kinase, sequence (P42680 whole entry): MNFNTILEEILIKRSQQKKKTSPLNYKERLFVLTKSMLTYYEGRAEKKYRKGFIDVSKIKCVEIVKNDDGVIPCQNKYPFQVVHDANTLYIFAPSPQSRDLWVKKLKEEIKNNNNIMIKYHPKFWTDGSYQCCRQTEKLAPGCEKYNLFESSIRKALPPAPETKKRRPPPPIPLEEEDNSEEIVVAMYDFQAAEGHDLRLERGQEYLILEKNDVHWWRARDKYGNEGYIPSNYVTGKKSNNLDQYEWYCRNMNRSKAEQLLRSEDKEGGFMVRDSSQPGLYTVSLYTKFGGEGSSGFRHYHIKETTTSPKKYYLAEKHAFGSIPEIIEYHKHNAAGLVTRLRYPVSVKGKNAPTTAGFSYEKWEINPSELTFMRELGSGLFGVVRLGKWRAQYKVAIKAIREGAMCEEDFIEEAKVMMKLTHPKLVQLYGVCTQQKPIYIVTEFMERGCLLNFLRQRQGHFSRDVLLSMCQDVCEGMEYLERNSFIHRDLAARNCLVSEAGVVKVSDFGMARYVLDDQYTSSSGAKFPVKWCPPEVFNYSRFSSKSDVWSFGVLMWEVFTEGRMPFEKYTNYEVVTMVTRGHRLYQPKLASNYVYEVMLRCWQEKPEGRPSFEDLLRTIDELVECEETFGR

SMILES	EC50 [1] [nM]	EC50 (Tec kinase) [nM]
C=CC(=O)Nc1cccc(-n2c(NC(=O)c3cccc(C#N)c3)nc3cc(CN[C@@H](C)C(C)(C)C)ccc32)c1 [Compound 9]	10 to 100	10 to 100
C=CC(=O)Nc1cccc(-n2c(NC(=O)c3ccc(-c4cnco4)s3)nc3cc(CN[C@@H](C)C(C)(C)C)ccc32)c1 [Compound 25]	< 10	< 10

More lines, now with the values ahead:

EC50 [1] [nM]	EC50 (Tec kinase) [nM]	SMILES
< 10	10 to 100	C=CC(=O)Nc1cccc(-n2c(NC(=O)c3ccc(C(F)F)s3)nc3cc(CN[C@@H](C)C(C)(C)C)ccc32)c1 [Compound 2]
< 10	10 to 100	C=CC(=O)Nc1cccc(-n2c(NC(=O)c3ccno3)nc3cc(CN[C@@H](C)C(C)(C)C)ccc32)c1 [Compound 38]
< 10	10 to 100	C=CC(=O)Nc1cccc(-n2c(NC(=O)c3ccnn3C)nc3cc(CN[C@@H](C)C(C)(C)C)ccc32)c1 [Compound 28]

Source: US10562893B2, “Benzimidazoles derivatives as Tec kinases family inhibitors” (GB005, Inc., priority 2015, dated 2020)
